Common to all, as to type: cell-based
Data set [1] in a line: Viability evaluation (MTS/PMS) of replicon RNA-transfected Huh7 cells, Example 2. The following applies: human, highest tested concentration 50 µM. An excerpt:
Obtained values are expressed as percent inhibition of untreated RNA-transfected control condition.

Data set [2] has as its system HEV Genotype 3 replicon Kernow-C1 p6/luc. In words: Antiviral activity against HEV Genotype 3 replicon Kernow-C1 p6/luc in Huh7 cells (Gaussia luciferase). The following applies: Huh-7, 96 h, read-out: relative EC50.
The test system of data set [3] is rat HEV replicon LAB350/luc. In words: Antiviral activity against rat HEV replicon LAB350/luc in Huh7 cells (Gaussia luciferase). The following applies: Huh-7, 72 h, 3 days, 50% reduction in Luc signal, two experiments.

Where only a bound is given, the exact number is not on record here.

For the molecule `CCOc1nc(N)nc2c1ncn2[C@@H]1O[C@]2(F)CO[P@@](=O)(N[C@H](C)C(=O)OC(C)C)O[C@H]2[C@@]1(C)F` [Compound 8], the CC50 in data set [1] was > 50 µM.

For the molecule `CCOc1nc(N)nc2c1ncn2[C@@H]1O[C@](F)(COP(=O)(N[C@@H](C)C(=O)OC2CCCCC2)Oc2ccccc2)[C@@H](O)[C@@]1(C)O` (stereo partly shown) [Compound 2], the CC50 in data set [1] is > 50 µM.

For `CC(C)OC(=O)OCOP(=O)(OCOC(=O)OC(C)C)OC[C@@]1(F)O[C@@H](n2ccc(=O)[nH]c2=O)[C@](C)(F)[C@@H]1O` [Compound 11], in data set [1], the CC50 was > 50 µM.

Turning to `CCOc1nc(N)nc2c1ncn2[C@@H]1O[C@](F)(COP(=O)(OCOC(=O)OC(C)C)OCOC(=O)OC(C)C)[C@@H](O)[C@@]1(C)O` [Compound 6], the CC50 in data set [1] is > 50 µM.

In the case of `CCOc1nc(N)nc2c1ncn2[C@@H]1O[C@]2(F)CO[P@@](=O)(NCC(=O)OC(C)C)O[C@H]2[C@@]1(C)F` [Compound 5], the EC50 in data set [2] was 0.022 µM; in data set [3], 0.046 µM. Also, in data set [1], the half-maximal cytotoxic concentration (CC50) is > 50 µM.

For `CC(C)OC(=O)OCOP(=O)(OCOC(=O)OC(C)C)OC[C@@]1(F)O[C@@H](n2ccc(=O)[nH]c2=O)[C@](C)(O)[C@@H]1O` [Compound 9], in data set [1], the CC50 was > 50 µM.

Take `CCOc1nc(N)nc2c1ncn2[C@@H]1O[C@](F)(COP(=O)(OCOC(=O)OC(C)C)OCOC(=O)OC(C)C)[C@@H](O)[C@@]1(C)F` [Compound 3]: the CC50 in data set [1] was > 50 µM.

Turning to `CC(C)OC(=O)[C@H](C)N[P@](=O)(OC[C@@]1(F)O[C@@H](n2ccc(=O)[nH]c2=O)[C@](C)(O)[C@@H]1O)Oc1ccccc1` [Compound 7], the CC50 in data set [1] was > 50 µM.

The values above are taken from US20230310481A1 (priority 2020, published 2023).
